Assay [1] deals with T1, histamine H2-receptors (Cavia porcellus, UniProt P47747).
T1 construct: from tissue; host or cells: isolated guinea pig right atrium
The experiment in a line: standard guinea pig atrium test (inhibition of histamine-induced tachycardia in the isolated guinea pig right atrium). The note with it: for Kb: isolated guinea pig right atrium, read-out: pA2 (guinea-pig atrium) (converted); for slope of response (figure in brackets with pA2, guinea-pig atrium): slope belonging to pA2, guinea-pig atrium. It counts as cell-based. From the text: (§1) The measurement of inhibition of histamine-stimulated secretion of gastric acid from the lumen-perfused stomachs of rats anaesthetised with urethane, and the measurement of inhibition of histamine-induced tachycardia in the isolated guinea pig right atrium, are detailed in U.S. Pat. No. 4,385,058.
(§2) To illustrate the level of activity of these compounds the following data were obtained in the standard guinea pig atrium test and the standard lumen-perfused rat test (for example see EP No. -A-49173).

The target of assay [2] is T2, histamine H2-receptors (Rattus norvegicus, UniProt P25102).
T2 construct: secretion of gastric acid from the lumen-perfused stomachs of rats anaesthetised with urethane; from tissue; host or cells: stomach of urethane-anaesthetised rats (in vivo, lumen-perfused)
T2 sequence (P25102 whole entry, the tested form may be a part): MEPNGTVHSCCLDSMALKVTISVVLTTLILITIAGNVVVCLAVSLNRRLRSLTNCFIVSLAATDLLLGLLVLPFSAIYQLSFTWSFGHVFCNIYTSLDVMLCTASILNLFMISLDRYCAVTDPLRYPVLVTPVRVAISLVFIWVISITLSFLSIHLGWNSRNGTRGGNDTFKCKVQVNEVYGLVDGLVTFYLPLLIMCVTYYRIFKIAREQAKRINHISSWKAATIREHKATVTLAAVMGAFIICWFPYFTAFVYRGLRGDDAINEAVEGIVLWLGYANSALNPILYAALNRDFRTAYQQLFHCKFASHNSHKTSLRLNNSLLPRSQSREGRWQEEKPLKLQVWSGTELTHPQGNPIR
The experiment in a line: standard lumen-perfused rat test (inhibition of histamine-stimulated secretion of gastric acid from the lumen-perfused stomachs of rats anaesthetised with urethane). It counts as in vivo.
Description: These are actions of histamine which, according to Ash and Schild, Brit. J. Pharmac. Chemother. 27 247 (1966), are not mediated by histamine H1 -receptors.
as §1, §2

The structures appear in SMILES notation.

Results on four molecules are retold here after US4732980A, “Intermediates for 3-amino-1,2,5-thiadiazole-1-oxides” (Smith Kline & French Laboratories Limited, priority 1985, dated 1988).

T1 sequence (P47747 whole entry): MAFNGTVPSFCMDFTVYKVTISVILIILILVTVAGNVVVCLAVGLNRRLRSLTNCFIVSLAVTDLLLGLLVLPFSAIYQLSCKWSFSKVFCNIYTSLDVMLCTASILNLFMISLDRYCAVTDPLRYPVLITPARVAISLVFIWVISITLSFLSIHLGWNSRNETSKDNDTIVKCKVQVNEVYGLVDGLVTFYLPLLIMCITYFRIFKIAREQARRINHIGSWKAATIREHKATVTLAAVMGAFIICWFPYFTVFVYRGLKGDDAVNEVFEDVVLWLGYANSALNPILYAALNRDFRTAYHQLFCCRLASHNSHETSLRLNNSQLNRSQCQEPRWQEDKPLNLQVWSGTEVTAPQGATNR

For `CN(C)CC#CCCCNC1=NS(=O)(=O)N=C1N` [Example 4, 3-Amino-4-[6-dimethylaminohex-4-ynylamino]-1,2,5-thiadiazole-1,1-dioxide], in assay [1], the Kb was 100 nM and the “slope of response (figure in brackets with pA2, guinea-pig atrium)” value (from here on “slope of response”) is on record as 0.88. In assay [2], this molecule displayed a median effective dose (ED50) of 0.027 mg/kg.
For the molecule `CN(C)CC#CCCCCNC1=NS(=O)(=O)N=C1N` [Example 3, 3-Amino-4-[7-dimethylaminohept-5-ynylamino]-1,2,5-thiadiazole-1,1-dioxide], in assay [1], the Kb is 151 nM and the “slope of response” value is 0.50. This molecule returned an ED50 in assay [2] of 0.1 mg/kg.
The like results for `Nc1n[s+]([O-])nc1NCCCCC#CCN1CCCCC1` (stereo not drawn) [Example 1, 3-Amino-4-[7-piperidinohept-5-ynylamino]-1,2,5-thiadiazole-1-oxide] were, in that order, 3020 nM, 0.95 and 1.1 mg/kg.
Take `CN(C)CC#CCCCCNc1n[s+]([O-])nc1N` (stereo not drawn) [Example 2, 3-Amino-4-[7-dimethylaminohept-5-ynylamino]-1,2,5--thiadiazole-1-oxide]: in assay [1], the Kb is 646 nM and the “slope of response” value is 0.61. Besides, the ED50 in assay [2] came to 0.16 mg/kg.

The ED50 is the dose that gives a 50% effect, or the effect in half of the subjects. A low value points to an effect at a small dose.
